Assay results published in US4048299A, “Anticaries confectionaries and oral health products” (William Wrigley, Jr. Co., priority 1970, dated 1977).
Where two headings read alike, the source gives them in different places.

What was measured:
Streptococcus spp. FA-1 = experiment: Growth inhibition of oral microorganisms in vitro, pour plates; format: cell-based; details: Table IX; for Bacterial Population, Experimental: control 2 × 10^8 to 5 × 10^8; for Inhibition (growth): pour plates incubated 48 - 72 hours
Experimental: (§1) (a)Determined on freshly grown pure cultures. Pour plates were incubated

oral microorganisms [1] = experiment: Acid production inhibition in vitro (summary); format: cell-based; details: in words, summary of tables
Experimental: (§2) Other in vitro evaluations utilized a broth tube analysis of representative anticaries aldehydes incorporated in the vehicles of this invention against cultures of acid producing microorganisms normally present in the mouth. Standard laboratory procedures were utilized throughout to evaluate the acid production inhibition and growth inhibition over the incubation time of up to 24 hours.

L. casei = experiment: Growth inhibition of oral microorganisms in vitro, pour plates; format: cell-based, Lactobacillus casei; details: Table IX; for Bacterial Population, Experimental: control 8 × 10^8 to 1 × 10^9; for Inhibition (growth): pour plates incubated 48 - 72 hours
Experimental: as §1

[2] = tested on: Lactobacillus casei and Streptococcus sp. FA-1; experiment: Acid-production inhibition by broth-tube assay, 0.1 percent of compound; format: cell-based; details: for inhibition at 0.1 %: read-out: Activity, Acid-Production Inhibition%; for Activity, Acid-Production Inhibition, %: Table XII, 0.1% of compound
Experimental: ^(a) Activity was measured by broth-tube assay to determine percent
(§3) acid-production inhibition obtained by Lactobacillus casei and
Streptococcus sp. FA-1 in the presence of 0.1 percent of compound.
^(a) Activity was measured by broth-tube assay to determine percent o
as §3
Streptococcus sp. FA-1 in the presence of 0.1% of compound. Symbols

oral microorganisms [3] = experiment: Growth inhibition in vitro (summary); format: cell-based; details: in words, summary of tables
Experimental: as §2

[4] = In vivo caries evaluation, Osborne-Mendel strain 2 rat; parameters: species or system rat (Osborne-Mendel strain 2); Caries Score, Mean Incidence / Caries Score, Mean Extent: scale not given here; details: for Caries Score, Mean Incidence / Caries Score, Mean Extent: 1 percent in diet; for Caries Extent Reduction, statistical evaluation / Caries Incidence Reduction, statistical evaluation: Student's test, 95 percent confidence limit
Description: (§4) Standard laboratory techniques were used to complie the data presented. In each case the aldehyde was incorporated into each specimen's food in a one percent, by weight, quantity, over a period of several weeks. In all cases, caries reduction was noted.
(§5) The aldehydes tested in vivo were pyruvaldehyde, d,1-glyceraldehyde, crystalline dimer, glycolaldehyde, octanaldehyde, nonanaldehyde, decanaldehyde, undecylenic aldehyde, and lauric aldehyde. The polyaldehydes tested were dialdehyde starch, dialdehyde starch 50 percent oxidized, dialdehyde starch 90 percent oxidized, and dialdehyde galactomannan gum.
^(a) Agents were incorporated in the diet at a 1 percent level.

[5] = In vivo caries evaluation, laboratory animals (summary); details: one percent level in diet
Description: as §4, §5

[6] = tested on: Lactobacillus casei ATCC 4646; experiment: Acid production inhibition by aldehydes in product vehicles, broth-tube technique; format: cell-based; details: in tooth powder (aqueous extract), 1 to 5 percent aldehyde
Experimental: as §2
(§6) (a)Measured by broth-tube technique.
(§7) In formulating Tables XIII - XIX representative aldehydes having anticaries activity were selected from those tested as summarized in Tables I - XII and incorporated in seven representative types of products. The products included dextrose and sucrose syrups, obtained commercially in food grades, and compressed candy, hard candy, mouthwash, toothpaste and toothpowder. The five latter products also employed food grade and reagent grade ingredients. These products were formulated by well-known and representative recipes for each type of product. The products were formed in batches of approximately 1 pound or 1 liter and contained all their normal constitutents. Aliquots of each products were blended with one of each of the representative aldehydes selected except in the case of hard candy.
(§8) Aliquots of the aldehyde incorporating sugar syrups, confectioneries, and mouthwash formulations were added directly to assay flasks and mixed or dissolved as required. Aqueous extracts of the aldehyde incorporated in toothpaste and toothpowder were prepared and aliquots of the filtrate were added to the assay flasks.
(§9) The assay flasks contained the necessary components for a normal growth response from the organisms employed, Lactobacillus casei ATCC 4646, originally a human oral isolate, Streptococcus spp. K1-R, human caries isolate, and a mixed oral microbial population obtained fresh from saliva on the morning prior to the initiation of each assay incubation period. The assay flask medium was dissolved in distilled water in which was added an equal volume of filter sterilized human saliva to yield a 50 percent saliva-medium combination. The medium contained all normal ingredients such as yeast extract, proteose peptone number 3 (a proprietary formula of Difco Laboratories, Detroit, Michigan) monopotassium phosphate, Tween 80 (polyoxethylene sorbitan monoleate) and water, except a carbon source. This was supplied by the aliquot of the sucrose syrup, dextrose syrup, sucrose in the compressed candy tablet and sucrose in the hard candy product. In addition, an aliquot of sucrose solution concentrate was added to the assay flask as a carbon source for evaluation of mouthwash, toothpaste, and toothpowder vehicles.
(§10) The lower aldehydes such as glycolaldehyde, crystalline dimer; pyruvaldehyde, aqueous syrup; d,1-glyceraldehyde solution and crystalline dimer; and glutaraldehyde, employed as a 50 percent aqueous solution, are water soluble and were employed directly either as powders or aqueous solutions. The C8 to C12, longer chain aliphatic aldehydes, of which decyl and dodecyl (lauric) were selected as representative, are oil soluble and are prepared and added to the products as emulsions with four parts of Tween 20, polyoxethylene sorbitan monolaurate. The aldehyde concentrations in the products were randomly chosen between 1 to 5 percent by weight. Limits for the concentrations were selected to coincide with the data presented in Tables I - XII in order to verify that the anticaries activity of the aldehydes in the product vehicles tested was equivalent to the activity previously established for the aldehydes alone.

[7] = tested on: Mixed human oral microorganisms; experiment: as above; format: cell-based; details: in tooth powder (aqueous extract), 1 to 5 percent aldehyde
Experimental: as §2, §6, §7, §8, §9, §10

Streptococcus spp. KI-R [8] = experiment: as above; format: cell-based; details: in tooth powder (aqueous extract), 1 to 5 percent aldehyde
Experimental: as §2, §6, §7, §8, §9, §10

[9] = tested on: Lactobacillus casei ATCC 4646; experiment: Growth inhibition by aldehydes in product vehicles, pour-plate technique; format: cell-based; details: in tooth powder (aqueous extract), 1 to 5 percent aldehyde
Experimental: as §2
(§11) (b)Measured by pour-plate technique.
as §7, §8, §9, §10

[10] = tested on: Mixed human oral microorganisms; experiment: as above; format: cell-based; details: in tooth powder (aqueous extract), 1 to 5 percent aldehyde
Experimental: as §2, §11, §7, §8, §9, §10

Streptococcus spp. KI-R [11] = experiment: as above; format: cell-based; details: in tooth powder (aqueous extract), 1 to 5 percent aldehyde
Experimental: as §2, §11, §7, §8, §9, §10

[12] = Table X, 0.1 percent of compound

CCCC=CC=O [2-Hexene-1-al]
Bacterial Population, Experimental (Streptococcus spp. FA-1): 9 × 10^7
Inhibition (growth) (Streptococcus spp. FA-1): Insignificant
Acid Production Inhibition (oral microorganisms [1]): excellent acid production inhibition
Bacterial Population, Experimental (L. casei): 8 × 10^8
Inhibition (growth) (L. casei): Insignificant
inhibition at 0.1 % [2]: 90 to 98%
Growth Inhibition (oral microorganisms [3]): little or no growth inhibition

O=CCCCC(O)C=O (stereo not shown) [2-Hydroxyadipaldehyde]
Activity, Acid-Production Inhibition, % [2]: + (25 to 74)

CC(C)=CCCC(C)=CC=O [Citral]
inhibition at 0.1 % [2, 12]: 99 to 100%

OCC1OC(O)C(CO)OC1O (stereo not shown) [Glyceraldehyde, crystalline dimer]
Caries Score, Mean Incidence ([4]; Table I, 91 days, L-2000 control 23.5): 15.0
Caries Score, Mean Extent ([4]; Table I, 91 days, L-2000 control 51.0): 29.4
Caries Extent Reduction, statistical evaluation ([4]; Table I, 91 days): Significant
Caries Incidence Reduction, statistical evaluation ([4]; Table I, 91 days): Significant

O=CC=O [Glyoxal]
Activity, Acid-Production Inhibition, % [2]: ++++ (99 to 100)

CCCCCCCCCCCC=O [Lauric aldehyde]
Bacterial Population, Experimental (Streptococcus spp. FA-1): 0
Inhibition (growth) (Streptococcus spp. FA-1): 100%
Caries Score, Mean Incidence ([4]; Table II, 90 days, L2000 control 17.4): 10.0
Caries Score, Mean Extent ([4]; Table II, 90 days, L2000 control 31.3): 15.6
Caries Extent Reduction, statistical evaluation ([4]; Table II, 90 days): Significant
Caries Incidence Reduction, statistical evaluation ([4]; Table II, 90 days): Significant
Anticaries effect in laboratory animals [5]: significant anticaries activity
Bacterial Population, Experimental (L. casei): < 1 × 10^2
Inhibition (growth) (L. casei): > 99.99%
inhibition at 0.1 % [2, 12]: 99 to 100%
Acid Production Inhibition ([6]; 2 h incubation): 0 Per cent
Acid Production Inhibition ([6]; 5 h incubation): 0 Per cent
Acid Production Inhibition ([6]; 24 h incubation): 93 Per cent
Acid Production Inhibition ([7]; 2 h incubation): 33 Per cent
Acid Production Inhibition ([7]; 5 h incubation): 96 Per cent
Acid Production Inhibition ([7]; 24 h incubation): 0 Per cent
Acid Production Inhibition (Streptococcus spp. KI-R [8]; 2 h incubation): 0 Per cent
Acid Production Inhibition (Streptococcus spp. KI-R [8]; 5 h incubation): 0 Per cent
Acid Production Inhibition (Streptococcus spp. KI-R [8]; 24 h incubation): 0 Per cent
Growth Inhibition ([9]; 2 h incubation): 99.5 Per cent
Growth Inhibition ([9]; 5 h incubation): > 99.99 Per cent
Growth Inhibition ([9]; 24 h incubation): 99.99 Per cent
Growth Inhibition ([10]; 2 h incubation): 99.8 Per cent
Growth Inhibition ([10]; 5 h incubation): 99.6 Per cent
Growth Inhibition ([10]; 24 h incubation): N.S.
Growth Inhibition (Streptococcus spp. KI-R [11]; 2 h incubation): 99.2 Per cent
Growth Inhibition (Streptococcus spp. KI-R [11]; 5 h incubation): > 99.99 Per cent
Growth Inhibition (Streptococcus spp. KI-R [11]; 24 h incubation): 100 Per cent

O=CC(=O)C=O [Mesoxalic dialdehyde]
Activity, Acid-Production Inhibition, % ([2]; confirmation of purity and structure lacking, actual activity could be much higher): + (25 to 74)
